Literature values, collected in US20230074252A1, “DOSAGES AND METHODS FOR TREATING PULMONARY ARTERIAL HYPERTENSION WITH RODATRISTAT” (Altavant Sciences GmbH, priority 2020, published 2023).

Tests used:
prostacyclin receptor = prostacyclin receptor (Homo sapiens, UniProt P43119); conditions: cited from earlier work
[1] = cited from earlier work; for Change in exposure on coadministration with clopidogrel: selexipag + clopidogrel (moderate inhibitor); for Increase in exposure (AUC) on coadministration with gemfibrozil: selexipag + gemfibrozil (strong CYP2C8 inhibitor); for Increase in exposure on coadministration with ritonavir: selexipag + ritonavir
CYP2C8 = molecular target: T1, CYP2C8 (Homo sapiens, UniProt P10632); conditions: literature; cited from earlier work
T1 sequence (P10632 1-490): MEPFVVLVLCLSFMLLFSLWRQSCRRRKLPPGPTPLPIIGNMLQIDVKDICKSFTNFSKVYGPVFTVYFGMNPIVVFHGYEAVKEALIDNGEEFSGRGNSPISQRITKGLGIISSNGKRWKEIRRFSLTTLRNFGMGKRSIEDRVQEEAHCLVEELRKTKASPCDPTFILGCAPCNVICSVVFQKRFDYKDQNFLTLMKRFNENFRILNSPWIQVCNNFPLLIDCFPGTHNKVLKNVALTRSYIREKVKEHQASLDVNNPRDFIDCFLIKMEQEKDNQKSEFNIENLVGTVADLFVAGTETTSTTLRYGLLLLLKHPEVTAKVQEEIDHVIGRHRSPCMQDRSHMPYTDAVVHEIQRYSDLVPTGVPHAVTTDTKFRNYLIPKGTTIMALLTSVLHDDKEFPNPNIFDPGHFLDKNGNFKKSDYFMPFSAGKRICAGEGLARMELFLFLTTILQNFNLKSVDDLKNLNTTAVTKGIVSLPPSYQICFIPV

[2] = oral; cited from earlier work
[3] = human, in vivo; cited from earlier work

Sequence of prostacyclin receptor (P43119 whole entry, species assumed): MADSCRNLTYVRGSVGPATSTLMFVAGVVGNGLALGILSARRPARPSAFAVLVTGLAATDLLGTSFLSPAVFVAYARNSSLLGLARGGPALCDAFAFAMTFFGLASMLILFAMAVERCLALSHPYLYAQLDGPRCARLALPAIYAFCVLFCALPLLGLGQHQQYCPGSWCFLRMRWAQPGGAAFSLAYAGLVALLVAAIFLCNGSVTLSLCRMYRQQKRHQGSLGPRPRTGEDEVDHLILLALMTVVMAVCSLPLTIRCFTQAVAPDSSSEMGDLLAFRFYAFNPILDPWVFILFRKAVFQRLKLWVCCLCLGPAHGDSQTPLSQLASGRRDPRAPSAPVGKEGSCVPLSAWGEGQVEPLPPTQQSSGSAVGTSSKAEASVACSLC

CC(C)N(CCCCOCC(=O)O)c1cnc(-c2ccccc2)c(-c2ccccc2)n1 [ACT-333679]
Potency relative to selexipag (prostacyclin receptor): approximately 37 fold | Change in exposure on coadministration with clopidogrel [1]: 2.7 fold | Increase in exposure (AUC) on coadministration with gemfibrozil [1]: 11 fold | Increase in exposure on coadministration with ritonavir [1]: < 2 fold

O=C1Nc2ccc(Cl)cc2[C@@](C#CC2CC2)(C(F)(F)F)O1 [efavirenz]
IC50 (CYP2C8): 4.8 µM

CC(C)N(CCCCOCC(=O)NS(C)(=O)=O)c1cnc(-c2ccccc2)c(-c2ccccc2)n1 [selexipag]
Change in exposure on coadministration with clopidogrel [1]: did not impact | Increase in exposure (AUC) on coadministration with gemfibrozil [1]: 2 fold | Increase in exposure on coadministration with ritonavir [1]: ~2 fold

CCCCC[C@H](O)CC[C@@H]1[C@H]2Cc3cccc(OCC(=O)O)c3C[C@H]2C[C@H]1O.[Na+] [treprostinil, (1R,2R,3aS,9aS)-[[2,3,3a,4,9,9a-Hexahydro-2-hydroxy-1-[(3S)-3-hydroxyoctyl]-1Hbenz[f]inden-5-yl]oxy]acetic acid monosodium salt]
Bioavailability [2]: ~17% | Increase in AUC on coadministration with gemfibrozil [3]: ~2 fold | Increase in Cmax on coadministration with gemfibrozil [3]: ~2 fold
